Results taken from US20230117034A1, “PYRAZOLOTRIAZINES” (Bayer Aktiengesellschaft, priority 2019, published 2023).

Tests used:
CDK12/CycK = CDK12/CycK (Homo sapiens, UniProt Q9NYV4); assay: CDK12/CycK high ATP kinase assay (TR-FRET, 2 mM ATP); format: biochemical; settings: 2 mM ATP (high ATP); median; read-out: CDK12/CyclinK, 2 mM ATP (high ATP), IC50-[mol/l] (median)
Procedure, shortened: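 Read-out is TR-FRET (Eu-anti-rabbit IgG, anti-phospho-c-Myc Ser62 antibody, streptavidin-XL665) after EDTA stop. Reaction ran 60 min at 22 °C using 1 µM biotin-peptide and high ATP (2 mM) with roughly 0.75 nM recombinant CDK12/CycK, after 15 min compound pre-binding; normalised emission ratios yield IC50.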

CDK2/CycE = target: T1, CDK2/CycE (Homo sapiens, UniProt P24941); assay: CDK2/CycE kinase assay (TR-FRET, 2 mM ATP); format: biochemical; settings: 2 mM ATP (high ATP); median; read-out: CDK2/CyclinE, 2 mM ATP (high ATP), IC50 (median)
T1 construct: purchased ProQinase GmbH (Freiburg, Germany); host or cells: insect cells (Sf9)
Procedure, shortened: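 Biotin-peptide phosphorylation (0.75 µM substrate, 2 mM ATP final, 25 min, 22 °C) by Sf9-expressed GST-CDK2/GST-CycE, after a 15-min compound pre-binding step. Inhibition scaled between enzyme-free (100%) and uninhibited (0%) wells.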

Chain of CDK12/CycK (Q9NYV4 with tags, fused parts or gaps): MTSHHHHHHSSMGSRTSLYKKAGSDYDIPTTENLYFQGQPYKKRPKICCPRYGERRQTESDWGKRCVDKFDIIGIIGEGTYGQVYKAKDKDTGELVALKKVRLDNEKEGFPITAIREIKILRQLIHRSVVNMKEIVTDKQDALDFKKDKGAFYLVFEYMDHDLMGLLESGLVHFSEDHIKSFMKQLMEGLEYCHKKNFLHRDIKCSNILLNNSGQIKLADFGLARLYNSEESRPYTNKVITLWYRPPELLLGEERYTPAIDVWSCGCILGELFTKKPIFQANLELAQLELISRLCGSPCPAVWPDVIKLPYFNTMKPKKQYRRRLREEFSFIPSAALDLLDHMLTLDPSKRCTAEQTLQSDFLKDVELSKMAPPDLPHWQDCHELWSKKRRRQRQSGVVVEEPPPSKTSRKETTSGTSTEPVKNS
Chain of CDK12/CycK (O75909 1-300 partner limits assumed): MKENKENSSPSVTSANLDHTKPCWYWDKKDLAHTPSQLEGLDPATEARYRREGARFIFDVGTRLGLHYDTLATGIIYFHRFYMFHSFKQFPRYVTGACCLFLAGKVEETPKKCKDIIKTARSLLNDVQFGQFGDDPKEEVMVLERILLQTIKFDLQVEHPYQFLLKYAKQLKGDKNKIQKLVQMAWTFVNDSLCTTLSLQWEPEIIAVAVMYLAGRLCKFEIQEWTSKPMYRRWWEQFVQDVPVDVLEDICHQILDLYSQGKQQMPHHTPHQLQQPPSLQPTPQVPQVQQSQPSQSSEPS

Row | Compound | IC50 (CDK12/CycK) [µM] | IC50 (CDK2/CycE) [µM]
1 | Brc1cnn2c(NCc3nc4ccccc4[nH]3)nc(N3C[C@H]4CC[C@@H]3CN4)nc12 (single isomer, unassigned) [Example 335, N-[(1H-benzimidazol-2-yl)methyl]-8-bromo-2-{[1R or S-(1R*,4R*)]-2,5-diazabicyclo[2.2.2]octan-2-yl}pyrazolo[1,5-a][1,3,5]triazin-4-amine] | 6.65 | 2.8
2 | Brc1cnn2c(NCc3nc4ccccc4[nH]3)nc(N3C[C@H]4CC[C@@H]3CO4)nc12 (single isomer, unassigned) [Example 383, N-[(1H-benzimidazol-2-yl)methyl]-8-bromo-2-{[1R or S-(1R*,4R*)]-2-oxa-5-azabicyclo[2.2.2]octan-5-yl}pyrazolo[1,5-a][1,3,5]triazin-4-amine] | 4.97 | 3.95
3 | Brc1cnn2c(NCc3nc4ccccc4[nH]3)nc(N3C[C@H]4CC[C@@H]3CO4)nc12 (single isomer, unassigned; enantiomer 2) [Example 391, N-[(1H-benzimidazol-2-yl)methyl]-8-bromo-2-{[1R or S-(1R*,4R*)]-2-oxa-5-azabicyclo[2.2.2]octan-5-yl}pyrazolo[1,5-a][1,3,5]triazin-4-amine (Enantiomer 2)] | 6.7 | 4.91
4 | Cc1[nH]c(CNc2nc(N3CCOCC3)nc3c(Br)cnn23)nc1-c1ccccc1 [Example 27, 8-bromo-N-[(5-methyl-4-phenyl-1H-imidazol-2-yl)methyl]-2-(morpholin-4-yl)pyrazolo[1,5-a][1,3,5]triazin-4-amine] | 3.48 | 17.1
5 | Fc1ccc(-c2nnc(CNc3nc(N4CCOCC4)nc4c(Br)cnn34)[nH]2)cc1 [Example 29, 8-bromo-N-{[5-(4-fluorophenyl)-4H-1,2,4-triazol-3-yl]methyl}-2-(morpholin-4-yl)pyrazolo[1,5-a][1,3,5]triazin-4-amine] | 3.67 | 3.08
6 | CC(C)c1cnn2c(NCc3ncc(-c4ccccc4)[nH]3)nc(N3CCN(C)CC3)nc12 [Example 31, 2-(4-methylpiperazin-1-yl)-N-[(5-phenyl-1H-imidazol-2-yl)methyl]-8-(propan-2-yl)pyrazolo[1,5-a][1,3,5]triazin-4-amine] | 13.6 | 17.5
7 | Cc1ccnc2[nH]c(CNc3nc(N4CCN(C)CC4)nc4c(C(C)C)cnn34)nc12 [Example 32, N-[(7-methyl-3H-imidazo[4,5-b]pyridin-2-yl)methyl]-2-(4-methylpiperazin-1-yl)-8-(propan-2-yl)pyrazolo[1,5-a][1,3,5]triazin-4-amine] | 18.5 | 15.6
8 | Clc1cc2nc(CNc3nc(N4CC5CCC(C4)N5)nc4c(C5CC5)cnn34)[nH]c2cc1Cl [Example 324, 8-cyclopropyl-2-(3,8-diazabicyclo[3.2.1]octan-3-yl)-N-[(5,6-dichloro-1H-benzimidazol-2-yl)methyl]pyrazolo[1,5-a][1,3,5]triazin-4-amine] | 0.859 | 13.8
9 | Fc1cc2nc(CNc3nc(N4CC5CCC(C4)N5)nc4c(C5CC5)cnn34)[nH]c2cc1F [Example 325, 8-cyclopropyl-2-(3,8-diazabicyclo[3.2.1]octan-3-yl)-N-[(5,6-difluoro-1H-benzimidazol-2-yl)methyl]pyrazolo[1,5-a][1,5]triazin-4-amine] | 3.55 | > 20
10 | Cc1cc2nc(CNc3nc(N4CC5CCC(C4)N5)nc4c(C5CC5)cnn34)[nH]c2cc1C [Example 326, 8-cyclopropyl-2-(3,8-diazabicyclo[3.2.1]octan-3-yl)-N-[(5,6-dimethyl-1H-benzimidazol-2-yl)methyl]pyrazolo[1,5-a][1,5]triazin-4-amine] | 0.942 | 4.14
11 | FC(F)(F)c1ccc2[nH]c(CNc3nc(N4CC5CCC(C4)N5)nc4c(C5CC5)cnn34)nc2c1 [Example 327, 8-cyclopropyl-2-(3,8-diazabicyclo[3.2.1]octan-3-yl)-N-{[5-(trifluoromethyl)-1H-benzimidazol-2-yl]methyl}pyrazolo[1,5-a][1,3,5]triazin-4-amine] | 2.35 | > 18.7
12 | Fc1cc2nc(CNc3nc(N4C[C@H]5CC[C@@H](C4)N5)nc4c(C5CC5)cnn34)[nH]c2cc1Cl [Example 328, N-[(6-chloro-5-fluoro-1H-benzimidazol-2-yl)methyl]-8-cyclopropyl-2-[(1R,5S)-3,8-diazabicyclo[3.2.1]octan-3-yl]pyrazolo[1,5-a][1,3,5]triazin-4-amine] | 1.66 | 14.5
13 | CN1CCN(c2nc(NCc3nc4cc(Cl)c(Cl)cc4[nH]3)n3ncc(Br)c3n2)CC1 [Example 330, 8-bromo-N-[(5,6-dichloro-1H-benzimidazol-2-yl)methyl]-2-(4-methylpiperazin-1-yl)pyrazolo[1,5-a][1,3,5]triazin-4-amine] | 4.63 | 13.8
14 | FC(F)(F)c1ccc2[nH]c(CNc3nc(N4CC5CCC(C4)N5)nc4c(Br)cnn34)nc2c1 [Example 354, 8-bromo-2-(3,8-diazabicyclo[3.2.1]octan-3-yl)-N-{[5-(trifluoromethyl)-1H-benzimidazol-2-yl]methyl}pyrazolo[1,5-a][1,3,5]triazin-4-amine] | 3.74 | –

Further lines, results first:

Row | IC50 (CDK12/CycK) [µM] | IC50 (CDK2/CycE) [µM] | Compound
15 | 3.21 | 2.07 | CCNc1nc(NCc2nc(-c3ccc(C)cc3)c[nH]2)n2ncc(Br)c2n1 [Example 26, 8-bromo-N^2-ethyl-N^4-{[4-(4-methylphenyl)-1H-imidazol-2-yl]methyl}pyrazolo[1,5-a][1,3,5]triazine-2,4-diamine]
16 | 3.32 | 6.02 | Cc1ccnc2[nH]c(CNc3nc(N4CCOCC4)nc4c(C(C)C)cnn34)nc12 [Example 28, N-[(7-methyl-3H-imidazo[4,5-b]pyridin-2-yl)methyl]-2-(morpholin-4-yl)-8-(propan-2-yl)pyrazolo[1,5-a][1,3,5]triazin-4-amine]
17 | 2.95 | 7.28 | CC(C)c1cnn2c(NCc3ncc(-c4ccccc4)[nH]3)nc(N3CCOCC3)nc12 [Example 30, 2-(morpholin-4-yl)-N-[(5-phenyl-1H-imidazol-2-yl)methyl]-8-(propan-2-yl)pyrazolo[1,5-a][1,3,5]triazin-4-amine]
18 | 2.38 | 12.1 | CN(CC(C)(C)O)c1nc(NCc2nc3cc(F)c(F)cc3[nH]2)n2ncc(C3CC3)c2n1 [Example 319, 1-[(8-cyclopropyl-4-{[(5,6-difluoro-1H-benzimidazol-2-yl)methyl]amino}pyrazolo[1,5-a][1,3,5]triazin-2-yl)(methyl)amino]-2-methylpropan-2-ol]
19 | 0.557 | 4.71 | Cc1cc2nc(CNc3nc(N4CCOCC4)nc4c(C5CC5)cnn34)[nH]c2cc1C [Example 320, 8-cyclopropyl-N-[(5,6-dimethyl-1H-benzimidazol-2-yl)methyl]-2-(morpholin-4-yl)pyrazolo[1,5-a][1,3,5]triazin-4-amine]
20 | 0.416 | 1 | Cc1cc2nc(CNc3nc(N(C)CC(C)(C)O)nc4c(C5CC5)cnn34)[nH]c2cc1C [Example 321, 1-[(8-cyclopropyl-4-{[(5,6-dimethyl-1H-benzimidazol-2-yl)methyl]amino}pyrazolo[1,5-a][1,3,5]triazin-2-yl)(methyl)amino]-2-methylpropan-2-ol]
21 | 1.21 | > 20 | FC(F)(F)c1ccc2[nH]c(CNc3nc(N4CCOCC4)nc4c(C5CC5)cnn34)nc2c1 [Example 322, 8-cyclopropyl-2-(morpholin-4-yl)-N-{[5-(trifluoromethyl)-1H-benzimidazol-2-yl]methyl}pyrazolo[1,5-a][1,3,5]triazin-4-amine]
22 | 2.85 | 13.5 | CN(CC(C)(C)O)c1nc(NCc2nc3cc(C(F)(F)F)ccc3[nH]2)n2ncc(C3CC3)c2n1 [Example 323, 1-{[8-cyclopropyl-4-({[5-(trifluoromethyl)-1H-benzimidazol-2-yl]methyl}amino)pyrazolo[1,5-a][1,3,5]triazin-2-yl](methyl)amino}-2-methylpropan-2-ol]
23 | 0.54 | 9.46 | Clc1cc2nc(CNc3nc(N4CCOCC4)nc4c(Br)cnn34)[nH]c2cc1Cl [Example 329, 8-bromo-N-[(5,6-dichloro-1H-benzimidazol-2-yl)methyl]-2-(morpholin-4-yl)pyrazolo[1,5-a][1,3,5]triazin-4-amine]
24 | 0.35 | 7.31 | CN(CC(C)(C)O)c1nc(NCc2nc3cc(Cl)c(Cl)cc3[nH]2)n2ncc(Br)c2n1 [Example 331, 1-[(8-bromo-4-{[(5,6-dichloro-1H-benzimidazol-2-yl)methyl]amino}pyrazolo[1,5-a][1,3,5]triazin-2-yl)(methyl)amino]-2-methylpropan-2-ol]
25 | 0.19 | > 20 | FC(F)(F)c1cnn2c(NCc3nc4cc(Cl)c(Cl)cc4[nH]3)nc(N3CCOCC3)nc12 [Example 332, N-[(5,6-dichloro-1H-benzimidazol-2-yl)methyl]-2-(morpholin-4-yl)-8-(trifluoromethyl)pyrazolo[1,5-a][1,3,5]triazin-4-amine]
26 | 0.142 | > 20 | Fc1cc2nc(CNc3nc(N4CCOCC4)nc4c(C(F)(F)F)cnn34)[nH]c2cc1F [Example 333, N-[(5,6-difluoro-1H-benzimidazol-2-yl)methyl]-2-(morpholin-4-yl)-8-(trifluoromethyl)pyrazolo[1,5-a][1,3,5]triazin-4-amine]
